Measurements published in ChEMBL document CHEMBL1201862, “PubChem BioAssay data set” (2004).
The source made the active and inactive calls.

Experiments:
[1] = target: T1, Small ubiquitin-related modifier 1 (Homo sapiens, UniProt P63165); test: SUMO1 protein interaction blockers, potency – biochemical, fluorescence polarization, uHTS hits, dose response (AID 624382); assay type: functional; conditions: read-out: IC50_Mean
[2] = target: T1, Small ubiquitin-related modifier 1; test: SUMO1 protein-protein binding blockers, potency – biochemical, FRET, dose response (AID 624383); assay type: functional; conditions: read-out: IC50_Mean
[3] = target: T2, Corticotropin-releasing factor receptor 2/Corticotropin-releasing factor-binding protein (Homo sapiens, UniProt P24387+Q13324); test: Dose Response confirmation of uHTS hits for small molecule antagonists of the CRF-binding protein and CRF-R2 receptor complex.; assay type: functional; conditions: read-out: IC50_Mean
T2 sequence (Q13324 whole entry): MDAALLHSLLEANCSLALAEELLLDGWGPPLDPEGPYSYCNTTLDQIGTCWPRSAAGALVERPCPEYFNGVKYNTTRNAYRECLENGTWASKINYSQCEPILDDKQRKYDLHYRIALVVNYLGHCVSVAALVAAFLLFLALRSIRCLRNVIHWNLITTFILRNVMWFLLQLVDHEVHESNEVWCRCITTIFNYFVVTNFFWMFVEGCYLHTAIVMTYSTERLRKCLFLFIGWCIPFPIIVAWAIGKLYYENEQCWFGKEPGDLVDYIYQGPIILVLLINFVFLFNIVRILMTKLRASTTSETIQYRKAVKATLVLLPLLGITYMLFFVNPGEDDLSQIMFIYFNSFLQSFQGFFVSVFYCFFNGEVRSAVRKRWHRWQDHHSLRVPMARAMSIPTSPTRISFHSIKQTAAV
T2 sequence (P24387 whole entry): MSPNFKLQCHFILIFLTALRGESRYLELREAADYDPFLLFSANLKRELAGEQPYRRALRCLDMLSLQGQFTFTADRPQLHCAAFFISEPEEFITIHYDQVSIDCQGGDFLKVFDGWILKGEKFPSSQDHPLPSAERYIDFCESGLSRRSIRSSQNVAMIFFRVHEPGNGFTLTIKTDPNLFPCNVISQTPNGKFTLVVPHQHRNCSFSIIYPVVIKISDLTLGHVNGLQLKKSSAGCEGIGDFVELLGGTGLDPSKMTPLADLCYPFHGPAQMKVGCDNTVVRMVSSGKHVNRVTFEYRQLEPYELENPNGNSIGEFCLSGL

[4] = target: T2, Corticotropin-releasing factor receptor 2/Corticotropin-releasing factor-binding protein; test: activators of CRF receptor 2 with binding protein – uHTS hits, confirmation (AID 602473); assay type: functional; conditions: read-out: EC50_Mean
[5] = blockers of CRF-binding protein–CRF-R2 complex – cell-based, uHTS hits, 384-well, dose response (AID 651639); assay type: functional, Homo sapiens; conditions: read-out: IC50_Mean
[6] = cAMP pathway inhibition in counterscreen cell line – TR-FRET cAMP detection, counter-screen for MC4R biased antagonist project, dose response (AID 602305); assay type: functional, cell-based;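 also: U2OS cells stimulated with forskolin near its EC80 as the cAMP inducer; potency is for inhibition of forskolin-stimulated cAMP signaling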
Melanocortin receptor 4 = Melanocortin receptor 4 (Homo sapiens, UniProt P32245); test: inhibitors of MC4R cAMP signaling – cell-based, TR-FRET, biased antagonists, dose response (AID 602298); assay type: functional;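 also: antagonist potency against agonist-stimulated cAMP production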
[7] = target: T3, Replicative DNA helicase DnaB (Mycobacterium tuberculosis, UniProt P9WMR3); test: DnaB intein splicing inhibitors, dose response, biochemical, cell-free fluorescence (AID 449749); assay type: functional
T3 sequence (P9WMR3 whole entry): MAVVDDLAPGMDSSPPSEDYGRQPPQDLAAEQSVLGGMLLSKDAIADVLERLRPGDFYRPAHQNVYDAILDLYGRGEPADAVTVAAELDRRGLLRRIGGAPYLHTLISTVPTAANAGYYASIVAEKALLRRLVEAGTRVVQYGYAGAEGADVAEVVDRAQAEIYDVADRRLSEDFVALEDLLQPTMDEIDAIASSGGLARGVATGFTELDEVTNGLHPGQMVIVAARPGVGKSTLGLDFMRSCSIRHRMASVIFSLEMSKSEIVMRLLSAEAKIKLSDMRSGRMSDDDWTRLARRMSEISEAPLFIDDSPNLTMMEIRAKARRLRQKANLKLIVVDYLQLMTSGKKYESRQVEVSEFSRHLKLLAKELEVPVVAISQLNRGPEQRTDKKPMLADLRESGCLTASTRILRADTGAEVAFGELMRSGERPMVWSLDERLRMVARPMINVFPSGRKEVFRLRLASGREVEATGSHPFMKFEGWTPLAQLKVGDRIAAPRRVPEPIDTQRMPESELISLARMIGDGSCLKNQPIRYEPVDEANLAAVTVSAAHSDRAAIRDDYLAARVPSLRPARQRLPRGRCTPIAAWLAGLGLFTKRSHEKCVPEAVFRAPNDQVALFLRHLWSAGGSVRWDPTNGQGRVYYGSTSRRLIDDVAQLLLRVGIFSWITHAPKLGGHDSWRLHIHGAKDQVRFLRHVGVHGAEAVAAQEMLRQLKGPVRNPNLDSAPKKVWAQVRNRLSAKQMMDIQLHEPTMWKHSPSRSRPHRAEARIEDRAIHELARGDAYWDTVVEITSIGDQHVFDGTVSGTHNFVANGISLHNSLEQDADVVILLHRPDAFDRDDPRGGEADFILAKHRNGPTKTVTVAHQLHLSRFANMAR

[8] = target: Ras and Rab interactor 1/Tyrosine-protein kinase ABL1 (Homo sapiens, UniProt P00519+Q13671); assay type: functional;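 also: biochemical TR-FRET dose-response test measuring inhibition of binding between Rin1 and Abl proteins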
Protein RecA = target: T4, Protein RecA (Mycobacterium tuberculosis, UniProt P9WHJ3); test: Fluorescence Cell-Free Homogeneous Dose Retest to Identify Inhibitors of RecA-Intein Splicing Activity. [Related pubchem assays (depositor defined):AID2097, AID2223, AID489010, AID492950]; assay type: functional
T4 sequence (P9WHJ3 whole entry): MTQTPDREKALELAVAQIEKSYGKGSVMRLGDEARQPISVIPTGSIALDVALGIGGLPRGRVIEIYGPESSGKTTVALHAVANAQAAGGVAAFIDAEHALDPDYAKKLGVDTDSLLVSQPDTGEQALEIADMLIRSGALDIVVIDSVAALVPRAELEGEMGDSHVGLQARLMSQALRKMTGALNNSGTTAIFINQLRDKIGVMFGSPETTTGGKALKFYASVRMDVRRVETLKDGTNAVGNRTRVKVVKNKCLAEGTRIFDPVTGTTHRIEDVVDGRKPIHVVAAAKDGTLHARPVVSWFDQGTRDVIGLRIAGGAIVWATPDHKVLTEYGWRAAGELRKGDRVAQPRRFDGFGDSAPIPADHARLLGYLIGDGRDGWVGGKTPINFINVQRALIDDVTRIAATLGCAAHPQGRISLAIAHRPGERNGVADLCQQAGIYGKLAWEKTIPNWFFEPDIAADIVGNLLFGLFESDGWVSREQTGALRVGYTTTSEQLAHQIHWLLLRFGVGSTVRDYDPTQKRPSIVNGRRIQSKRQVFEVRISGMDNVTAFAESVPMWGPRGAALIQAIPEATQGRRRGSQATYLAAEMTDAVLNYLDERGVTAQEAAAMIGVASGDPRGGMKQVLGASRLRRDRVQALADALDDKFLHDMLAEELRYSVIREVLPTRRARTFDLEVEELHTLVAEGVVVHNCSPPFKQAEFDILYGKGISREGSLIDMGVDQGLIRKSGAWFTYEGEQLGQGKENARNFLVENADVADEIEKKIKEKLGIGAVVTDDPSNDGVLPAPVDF

[9] = HGIII-sPLA2 enzyme inhibition potency – biochemical, QFRET, IC50, dose response (AID 743457);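 also: green fluorescence rise as the enzyme cleaves BODIPY PC-A2 in liposomes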
cells [10] = assay type: functional
[11] = THP-1 cell cytotoxicity, dose response, cytotoxicity control for non-replicating M. tuberculosis project (AID 489025); assay type: functional
cells [12] = assay type: functional, cell-based; conditions: HEK-CNG
Galanin receptor type 3 = Galanin receptor type 3 (Homo sapiens, UniProt O60755); test: Fluorescence-based cell-based primary high throughput dose response assay to identify antagonists of the Galanin Receptor 3 (GalR3).; assay type: functional
[13] = target: DNA dC->dU-editing enzyme APOBEC-3G (Homo sapiens, UniProt Q9HC16); test: Dose Response confirmation of small molecule APOBEC3G DNA Deaminase Inhibitors via a fluorescence-based single-stranded DNA deaminase assay. [Related pubchem assays (depositor defined):AID493012, AID493028]; assay type: functional
[14] = target: DNA dC->dU-editing enzyme APOBEC-3A (Homo sapiens, UniProt P31941); test: A3A deaminase inhibition for selectivity – biochemical, dose response (AID 504722); assay type: functional
[15] = target: Hepatocyte nuclear factor 4-alpha (Homo sapiens, UniProt P41235); assay type: functional, cell-based;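 also: biochemical luminescence-based dose-response counterscreen measuring inhibition of HNF4 dimerization, run alongside a screen for blockers of ABHD5–perilipin-5 interaction; split luciferase complementation of HNF4 fusion proteins in cell lysate measuring dimerization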
[16] = target: T5, Nuclear receptor subfamily 0 group B member 1 (Homo sapiens, UniProt P51843); assay type: functional, cell-based;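 also: HEK293T cells transfected with SF-1 and DAX-1 plus StAR promoter luciferase reporter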
T5 sequence (P51843 whole entry): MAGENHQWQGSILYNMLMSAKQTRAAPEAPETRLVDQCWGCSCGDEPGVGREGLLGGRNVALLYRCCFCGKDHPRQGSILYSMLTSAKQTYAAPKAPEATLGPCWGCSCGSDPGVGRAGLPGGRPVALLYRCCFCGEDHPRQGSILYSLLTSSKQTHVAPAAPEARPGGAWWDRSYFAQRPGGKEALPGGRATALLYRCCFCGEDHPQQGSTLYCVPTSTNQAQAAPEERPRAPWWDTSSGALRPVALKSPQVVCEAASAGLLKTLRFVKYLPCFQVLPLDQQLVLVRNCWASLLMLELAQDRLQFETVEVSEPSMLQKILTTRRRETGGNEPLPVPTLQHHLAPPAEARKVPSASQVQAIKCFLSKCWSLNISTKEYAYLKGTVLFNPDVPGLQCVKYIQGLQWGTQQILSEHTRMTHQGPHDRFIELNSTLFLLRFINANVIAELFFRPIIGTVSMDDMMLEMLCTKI

cells [17] = assay type: functional, cell-based
Paired box protein Pax-8 = Paired box protein Pax-8 (Homo sapiens, UniProt Q06710); test: PAX8 transcriptional activity inhibition in RMG-I – RMG-I cells, luciferase, cherry-pick, dose response (AID 687027); assay type: functional, cell-based;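 also: luciferase reporter driven by Pax8 target thyroperoxidase promoter measured by SteadyGlo luminescence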
[18] = IGROV1 cell killing – plate reader, dry powder samples, PAX8 inhibitor project, dose response (AID 743043); assay type: functional, cell-based; conditions: IGROV-1
[19] = A2780 cell killing – plate reader, dry powder samples, cytotoxicity control, dose response (AID 743046); assay type: functional, cell-based
[20] = toxicity toward immortalized ovarian surface epithelium – cell-based, plate reader, dry powder samples, cytotoxicity control for PAX8 inhibitor project, dose response (AID 743045); assay type: functional
[21] = OVCAR8 cell viability loss – plate reader, dry powder samples, PAX8 project, dose response (AID 743197); assay type: functional, cell-based; conditions: OVCAR-8
[22] = OVCAR-3 cell viability loss – plate reader, dry powder samples, PAX8 inhibitor project, dose response (AID 743044); assay type: functional, cell-based
[23] = Late stage assay provider results from the probe development effort to identify selective inhibitors of heat shock protein 90 (HSP90): Absorbance-based cell proliferation assay in SKBR3 cells.; assay type: functional; conditions: SK-BR-3
[24] = Late stage assay provider results from the probe development effort to identify selective inhibitors of heat shock protein 90 (HSP90): Absorbance-based cell proliferation assay in MCF7 cells.; assay type: functional

Sequence of Ras and Rab interactor 1/Tyrosine-protein kinase ABL1 (P00519 whole entry): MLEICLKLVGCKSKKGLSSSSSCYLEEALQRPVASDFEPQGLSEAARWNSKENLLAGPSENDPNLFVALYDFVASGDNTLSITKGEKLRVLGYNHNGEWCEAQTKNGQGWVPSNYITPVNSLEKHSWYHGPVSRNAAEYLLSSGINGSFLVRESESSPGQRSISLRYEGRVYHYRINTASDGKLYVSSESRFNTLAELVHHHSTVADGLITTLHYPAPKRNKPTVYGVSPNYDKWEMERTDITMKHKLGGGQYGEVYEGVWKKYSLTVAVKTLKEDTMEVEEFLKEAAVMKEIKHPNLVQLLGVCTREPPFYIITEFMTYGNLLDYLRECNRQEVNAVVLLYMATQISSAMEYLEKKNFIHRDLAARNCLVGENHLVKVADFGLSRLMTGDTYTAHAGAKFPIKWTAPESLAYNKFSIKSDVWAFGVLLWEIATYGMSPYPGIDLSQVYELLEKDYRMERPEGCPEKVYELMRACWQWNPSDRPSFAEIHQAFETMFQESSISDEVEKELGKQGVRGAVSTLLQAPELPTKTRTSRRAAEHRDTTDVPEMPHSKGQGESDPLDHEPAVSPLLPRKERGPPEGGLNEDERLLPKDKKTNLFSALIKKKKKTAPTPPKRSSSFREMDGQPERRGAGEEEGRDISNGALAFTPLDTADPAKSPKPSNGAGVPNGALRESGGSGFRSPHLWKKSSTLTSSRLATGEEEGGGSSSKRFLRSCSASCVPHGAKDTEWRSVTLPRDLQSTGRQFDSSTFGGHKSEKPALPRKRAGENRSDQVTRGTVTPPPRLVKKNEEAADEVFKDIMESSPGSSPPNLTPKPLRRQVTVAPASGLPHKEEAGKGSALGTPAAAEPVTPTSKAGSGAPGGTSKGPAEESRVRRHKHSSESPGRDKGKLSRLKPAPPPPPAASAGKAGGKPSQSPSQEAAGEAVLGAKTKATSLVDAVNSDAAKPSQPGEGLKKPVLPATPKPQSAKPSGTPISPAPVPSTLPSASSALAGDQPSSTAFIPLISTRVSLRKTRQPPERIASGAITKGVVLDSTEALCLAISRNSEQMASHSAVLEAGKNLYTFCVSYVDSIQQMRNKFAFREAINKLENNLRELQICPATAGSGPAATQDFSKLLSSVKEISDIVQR
Sequence of Ras and Rab interactor 1/Tyrosine-protein kinase ABL1 (Q13671 whole entry): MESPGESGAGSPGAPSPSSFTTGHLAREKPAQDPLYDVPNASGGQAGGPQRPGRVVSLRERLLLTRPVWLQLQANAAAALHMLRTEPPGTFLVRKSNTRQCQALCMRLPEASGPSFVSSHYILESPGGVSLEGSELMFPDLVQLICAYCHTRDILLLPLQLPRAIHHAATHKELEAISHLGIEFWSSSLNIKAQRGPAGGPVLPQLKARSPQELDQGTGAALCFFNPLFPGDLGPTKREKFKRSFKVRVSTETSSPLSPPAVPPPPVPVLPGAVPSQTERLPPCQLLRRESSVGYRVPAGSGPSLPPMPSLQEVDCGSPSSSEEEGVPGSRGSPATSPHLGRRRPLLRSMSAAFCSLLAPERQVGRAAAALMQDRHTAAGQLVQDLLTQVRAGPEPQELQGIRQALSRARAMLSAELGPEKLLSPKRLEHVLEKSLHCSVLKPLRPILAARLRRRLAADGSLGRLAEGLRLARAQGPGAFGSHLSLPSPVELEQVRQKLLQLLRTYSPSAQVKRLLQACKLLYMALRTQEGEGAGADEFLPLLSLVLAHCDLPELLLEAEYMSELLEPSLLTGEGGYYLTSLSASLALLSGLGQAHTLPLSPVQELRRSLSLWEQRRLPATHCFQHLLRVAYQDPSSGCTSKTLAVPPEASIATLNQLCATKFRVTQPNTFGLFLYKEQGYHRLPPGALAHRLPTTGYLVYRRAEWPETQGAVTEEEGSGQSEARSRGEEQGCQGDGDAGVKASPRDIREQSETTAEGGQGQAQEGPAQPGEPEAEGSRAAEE
T1 sequence (P63165 whole entry): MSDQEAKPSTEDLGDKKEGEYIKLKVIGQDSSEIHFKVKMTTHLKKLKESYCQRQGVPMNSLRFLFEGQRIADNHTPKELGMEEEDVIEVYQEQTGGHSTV
Sequence of Galanin receptor type 3 (O60755 whole entry): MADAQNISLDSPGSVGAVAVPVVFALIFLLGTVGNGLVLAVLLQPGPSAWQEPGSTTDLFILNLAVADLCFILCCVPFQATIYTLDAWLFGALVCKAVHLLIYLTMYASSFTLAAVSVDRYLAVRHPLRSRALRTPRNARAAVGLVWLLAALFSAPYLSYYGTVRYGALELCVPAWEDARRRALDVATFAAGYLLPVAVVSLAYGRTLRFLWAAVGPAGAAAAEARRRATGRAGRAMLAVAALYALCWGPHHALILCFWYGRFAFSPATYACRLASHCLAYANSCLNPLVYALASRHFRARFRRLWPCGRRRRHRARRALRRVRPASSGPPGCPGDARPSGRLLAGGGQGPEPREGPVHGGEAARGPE
Sequence of Melanocortin receptor 4 (P32245 whole entry): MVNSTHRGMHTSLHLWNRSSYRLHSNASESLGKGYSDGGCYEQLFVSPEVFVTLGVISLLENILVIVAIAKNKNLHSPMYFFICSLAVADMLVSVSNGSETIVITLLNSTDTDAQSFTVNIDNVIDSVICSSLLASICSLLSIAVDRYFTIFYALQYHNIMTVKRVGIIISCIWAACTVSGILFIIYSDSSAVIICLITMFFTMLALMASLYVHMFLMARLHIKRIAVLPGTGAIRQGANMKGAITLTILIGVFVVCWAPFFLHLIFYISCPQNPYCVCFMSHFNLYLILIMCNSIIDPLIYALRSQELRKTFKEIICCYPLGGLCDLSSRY
Sequence of Paired box protein Pax-8 (Q06710 whole entry): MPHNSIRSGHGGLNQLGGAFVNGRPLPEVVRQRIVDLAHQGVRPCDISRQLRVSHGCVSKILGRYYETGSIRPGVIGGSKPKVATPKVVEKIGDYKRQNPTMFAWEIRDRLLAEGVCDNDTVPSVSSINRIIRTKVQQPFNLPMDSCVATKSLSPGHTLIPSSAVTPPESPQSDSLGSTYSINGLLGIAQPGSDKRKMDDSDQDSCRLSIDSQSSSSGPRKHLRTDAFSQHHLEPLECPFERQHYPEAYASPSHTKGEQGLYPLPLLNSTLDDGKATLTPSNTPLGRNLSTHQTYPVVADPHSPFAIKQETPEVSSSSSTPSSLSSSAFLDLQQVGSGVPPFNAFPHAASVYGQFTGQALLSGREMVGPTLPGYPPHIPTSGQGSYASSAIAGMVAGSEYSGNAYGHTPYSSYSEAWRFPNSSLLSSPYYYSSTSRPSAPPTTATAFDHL
Sequence of DNA dC->dU-editing enzyme APOBEC-3G (Q9HC16 whole entry): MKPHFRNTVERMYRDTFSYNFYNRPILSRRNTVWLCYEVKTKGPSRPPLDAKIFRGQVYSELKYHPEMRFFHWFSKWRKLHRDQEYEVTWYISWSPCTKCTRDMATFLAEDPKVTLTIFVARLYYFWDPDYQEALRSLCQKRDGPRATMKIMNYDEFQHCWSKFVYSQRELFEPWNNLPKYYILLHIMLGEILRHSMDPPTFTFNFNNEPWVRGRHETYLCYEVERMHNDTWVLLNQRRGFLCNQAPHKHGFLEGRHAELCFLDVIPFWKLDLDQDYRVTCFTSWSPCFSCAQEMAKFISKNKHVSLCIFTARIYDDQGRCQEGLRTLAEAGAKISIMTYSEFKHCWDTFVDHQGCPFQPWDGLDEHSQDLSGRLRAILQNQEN
Sequence of Hepatocyte nuclear factor 4-alpha (P41235 whole entry, the tested form may be a part): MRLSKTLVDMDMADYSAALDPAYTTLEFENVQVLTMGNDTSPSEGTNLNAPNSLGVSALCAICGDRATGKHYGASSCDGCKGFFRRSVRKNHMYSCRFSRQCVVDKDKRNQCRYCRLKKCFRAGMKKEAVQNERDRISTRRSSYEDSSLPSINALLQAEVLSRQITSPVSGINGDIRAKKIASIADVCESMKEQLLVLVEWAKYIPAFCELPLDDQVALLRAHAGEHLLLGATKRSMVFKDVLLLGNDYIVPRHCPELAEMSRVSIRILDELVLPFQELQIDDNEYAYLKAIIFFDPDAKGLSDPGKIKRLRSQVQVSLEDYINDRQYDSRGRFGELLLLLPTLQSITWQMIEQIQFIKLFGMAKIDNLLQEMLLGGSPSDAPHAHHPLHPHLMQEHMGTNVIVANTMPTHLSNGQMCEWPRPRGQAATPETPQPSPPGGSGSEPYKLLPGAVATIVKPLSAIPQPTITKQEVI
Sequence of DNA dC->dU-editing enzyme APOBEC-3A (P31941 whole entry, the tested form may be a part): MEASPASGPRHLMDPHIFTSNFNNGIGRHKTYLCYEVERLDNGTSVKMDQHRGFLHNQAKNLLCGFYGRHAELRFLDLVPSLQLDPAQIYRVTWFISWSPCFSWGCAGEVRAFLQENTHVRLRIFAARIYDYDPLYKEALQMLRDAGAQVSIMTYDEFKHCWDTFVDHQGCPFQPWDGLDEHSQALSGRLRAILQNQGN

Compound: CCCCCC(=O)Nc1nc(C)c(-c2csc(Nc3cc(Cl)ccc3C)n2)s1
- IC50 [1]: > 66.6 µM (inactive)
- IC50 [2]: 10.7 µM (active)

Compound: O=C(O)c1cnn(-c2nc(-c3ccc(Cl)c(Cl)c3)cs2)c1C(F)(F)F
- IC50 [3]: 13.2 µM (active)
- EC50 [4]: 43.4 µM (active)
- IC50 [5]: 11 µM (active)
- IC50 [6]: > 64.6 µM (inactive)
- IC50 (Melanocortin receptor 4): 5 µM (active)

Compound: COc1ccc(OC)c(NC(=O)Cc2ccc(NC3=NC4CS(=O)(=O)CC4S3)cc2)c1 (centres undefined)
- AC50 [7]: > 380 µM (inactive)
- IC50 [8]: 14.1 µM (inactive)
- EC50 (Protein RecA): > 380 µM (inactive)

Compound: Cc1cccc(NN=C(S)Nc2c(C)cccc2C)c1
- IC50 [9]: > 122 µM (inactive)

Compound: CC(C)(C)NC(=O)COC(=O)c1snc(C(=O)NC2CCCCC2)c1N
- IC50 (cells [10]): 4.33 µM (active)
- CC50 [11]: > 40 µM (active)
- EC50 (cells [12]): > 29.9 µM (inactive)
- IC50 (Galanin receptor type 3): 1.95 µM (active)

Compound: N#Cc1cc(-c2ccccc2)oc1NC(=O)c1ccco1
- EC50 (cells [12]): > 29.9 µM (inactive)
- IC50 (Galanin receptor type 3): 8.23 µM (active)

Compound: CCn1c(S)nnc1-c1cc2c(C(F)(F)F)nn(C)c2s1
- IC50 [13]: 3.06 µM (active)
- IC50 [9]: > 122 µM (inactive)
- IC50 [14]: > 100 µM (inactive)

Compound: COC(=O)c1ccc(COC(=O)c2ccc(-n3cnnn3)cc2)o1
- IC50 [8]: 21.1 µM (inactive)

Compound: COc1cc(C(C)=O)ccc1OCc1cn(CC(=O)c2ccc(O)cc2)nn1
- IC50 [15]: 5.85 µM (active)

Compound: COc1ccc(C=C2CCc3ccccc3C2=O)cc1
- IC50 [16]: > 67.6 µM (inactive)
- IC50 (cells [17]): > 67.6 µM (inactive)

Compound: Cc1ccc(S(=O)(=O)N(C)C[C@@H]2Oc3ccc(NC(=O)Nc4ccc(C(F)(F)F)cc4)cc3CC(=O)N([C@@H](C)CO)C[C@@H]2C)cc1
- AC50 (Paired box protein Pax-8): 0.799 µM (active)
- AC50 [18]: 1.16 µM (active)
- AC50 [19]: 3.88 µM (active)
- AC50 [20]: 0.483 µM (active)
- AC50 [21]: 5.91 µM (active)
- AC50 [22]: 0.584 µM (active)

Compound: COc1ccc2cc(Br)c(=O)oc2c1
- IC50 [23]: > 100 µM (inactive)
- IC50 [24]: > 100 µM (inactive)

Compound: CCOc1cn(C)c(C(=O)Nc2ccccc2)cc1=O
- IC50 [23]: > 100 µM (inactive)
- IC50 [24]: > 100 µM (inactive)
